Data on eight compounds can be found in ChEMBL document CHEMBL1157320, “Hepatoprotective sesquiterpene glycosides from Sarcandra glabra” (J Nat Prod, 2006).

Data set [1] is described as follows: Hepatoprotective activity in rat WB-F344 cells assessed as inhibition of D-galactosamine-induced toxicity at 0.1 mM by MTT method relative to control. The data set is classed as functional. For orientation: Tetrazolium assays rely on reduction of a dye to a coloured formazan, in cell work by metabolically active cells.
Data set [2] is described as follows: Cytotoxicity against rat WB-F344 cells assessed as cell survival rate at 0.1 mM by MTT method relative to control. In kind it is cell-based. The settings on record: read-out: Activity.

For orientation: inhibition means the relative decrease from the control value, in per cent.

With `C=C1[C@H]2C[C@H]2[C@]2(C)[C@H](O)[C@]3(O[C@@H]4O[C@H](CO)[C@@H](O)[C@H](O)[C@H]4O)OC(=O)C(C)=C3C[C@@H]12`, the inhibition at 100 µM in data set [1] stood at 26%. Besides, the viability at 100 µM in data set [2] worked out at 45.5%.
In the case of `COC(=O)c1cc(OC)c2c(c1-c1c(CO)cc(OC)c3c1OCO3)OCO2` [BICYCLOL], in data set [1], the inhibition at 100 µM was found to be 27.4%. In addition, the viability at 100 µM in data set [2] was 46.6%.
For `CC1=C2C[C@@H]3[C@@](C)(C=C2OC1=O)[C@@H]1C[C@@H]1[C@]3(O)CO[C@@H]1O[C@H](CO)[C@@H](O)[C@H](O)[C@H]1O` [CHLORANOSIDE A], in that order: 38.2% and 54.5%.
Take `C=C1CC[C@H](O[C@@H]2O[C@H](CO)[C@@H](O)[C@H](O)[C@H]2O)[C@]2(C)C[C@@H]3OC(=O)C(C)=C3C[C@@H]12` [SARCAGLABOSIDE A]: the inhibition at 100 µM in data set [1] came out at 28.7%. For the same compound, the viability at 100 µM in data set [2] was determined as 47.5%.
On to `C=C1C=C[C@H](O[C@@H]2O[C@H](CO)[C@@H](O)[C@H](O)[C@H]2O)[C@]2(C)C[C@@H]3OC(=O)C(C)=C3C[C@@H]12` [SARCAGLABOSIDE B], for which, in data set [1], the inhibition at 100 µM stood at 65.9%. The viability at 100 µM in data set [2] worked out at 74.9%.
On to `C=C[C@]1(C)C[C@@H]2OC(=O)C(C)=C2C[C@H]1C(=C)CO[C@@H]1O[C@H](CO)[C@@H](O)[C@H](O)[C@H]1O` [SARCAGLABOSIDE C], for which the inhibition at 100 µM in data set [1] worked out at 36.1%. Moreover, in data set [2], the viability at 100 µM is 53%.
For `C=C[C@]1(C)C[C@@H]2OC(=O)C(C)=C2C[C@H]1C(=C)CO[C@@H]1O[C@H](CO[C@@H]2OC[C@](O)(CO)[C@H]2O)[C@@H](O)[C@H](O)[C@H]1O` [SARCAGLABOSIDE D], in that order: 27% and 46.3%.
The matching figures for `CC1=C2C/C=C(\CO[C@@H]3O[C@H](CO[C@@H]4OC[C@](O)(CO)[C@H]4O)[C@@H](O)[C@H](O)[C@H]3O)CC/C=C(\C)C[C@@H]2OC1=O` [SARCAGLABOSIDE E]: 21.7% and 42.4%.
